According to patent publication US12465613B2, “Pharmaceutical composition for use in the prophylactic and/or therapeutic treatment of L-DOPA-induced dyskinesia” (UNIVERSIDADE DE SANTIAGO DE COMPOSTELA, priority 2019, dated 2025):
“Also recorded” adds a separate entry of the source.

Experiments:
Assay type in all cases: in vivo, rats of the Sprague-Dawley strain
RhoA = RhoA expression in striatum and substantia nigra of dyskinetic animals (Western blot, real-time PCR; Example 1)
ROCK = ROCK expression and activity in striatum and substantia nigra of dyskinetic animals (Western blot, real-time PCR; Example 1)
[1] = system: rats injected with 6-OHDA, dyskinesias induced by L-DOPA; assay: Abnormal involuntary movements (AIMs) when fasudil is co-administered from before and during chronic L-DOPA treatment (Example 2)
[2] = system: rats with unilateral lesion with 6-OHDA; assay: Rotational behavior induced by L-DOPA (Example 3); conditions: different doses of fasudil (10, 30, 40 mg/kg)
[3] = system: rats with unilateral lesion with 6-OHDA, established dyskinesias induced by L-DOPA; assay: AIMs in animals with already established dyskinesias (L-DOPA 3 weeks, then L-DOPA and fasudil; Example 4)
[4] = L-DOPA 6 mg/kg and 12 mg/kg, normalized to 6-OHDA animals treated with saline, p<0.05
[5] = daily L-DOPA 6 or 12 mg/kg, 3-4 weeks, increase greater with the higher dose
[6] = fasudil 10 mg/kg/day i.p., L-DOPA 6 mg/kg, 3 weeks, relative to L-DOPA only
[7] = fasudil 30 mg/kg i.p., chronic L-DOPA

N[C@@H](Cc1ccc(O)c(O)c1)C(=O)O [L-DOPA] was tested, and the “RhoA protein expression in the substantia nigra” value (RhoA; [4]) was “significant increase”, the “RhoA protein expression in the striatum” value (RhoA; L-DOPA 6 and 12 mg/kg) was “only significant with the high dose” and the “levels of the RhoA protein in dyskinetic animals” value (RhoA; [5]) was “significant increase”. For the same compound, the “ROCK activity in the substantia nigra” value (ROCK; L-DOPA 6 mg/kg and 12 mg/kg, normalized to 6-OHDA animals treated with saline) was “significant increase”, the “ROCK protein expression in the substantia nigra” value (ROCK; [4]) was “significant increase” and the “ROCK protein expression in the striatum” value (ROCK; L-DOPA 6 and 12 mg/kg) was “only significant with the high dose”. The “levels of the ROCK protein in dyskinetic animals” value (ROCK; [5]) was “significant increase”.

With O=S(=O)(c1cccc2cnccc12)N1CCCNCC1 [fasudil] the “abnormal involuntary movements (AIMs), total score and separate components (extremity, axial, orolingual)” value ([1]; FIG. 2, fasudil 10 mg/kg and 30-40 mg, chronic L-DOPA 23 and 32 days, p<0.05) was “statistically significant reduction”, the “reduction in dyskinesia in conditions of severe dyskinesia” value ([1]; L-DOPA dose increased to 24 mg/kg at the end of the treatment, fasudil dose not stated) was “approximately 50%” and the “axial reduction in dyskinesias” value [1, 6] was ~35%. The “orolingual reduction in dyskinesias” value [1, 6] was ~30%, the “reduction in dyskinesias in the extremities” value ([1]; fasudil 10 mg/kg/day i.p., from 5 days before and 30 min before each L-DOPA 6 mg/kg, 3 weeks, relative to L-DOPA only) was ~25% and the “axial reduction in dyskinesias” value [1, 7] was 60%. For the same compound, the “extremity reduction in dyskinesias” value [1, 7] was 60%, the “orolingual reduction in dyskinesias” value [1, 7] was 70% and the reduction in dyskinesia ([1]; fasudil 40 mg/kg i.p., chronic L-DOPA) was 70%. For the same compound, the “rotations induced by L-DOPA (rotational behavior)” value [2] was “unaffected; also recorded: no differences were observed”, the “effect on established dyskinetic movements” value ([3]; FIG. 4B, fasudil 30 and 40 mg/kg, even with L-DOPA 24 mg/kg, p<0.05) was “significant reduction” and the “reduction in established dyskinesias, severe dyskinesia” value ([3]; L-DOPA increased to 24 mg/kg, maintained up to the end of the treatment) was “approximately 50%”. For the same compound, the “effect on established dyskinetic movements” value ([3]; fasudil 10 mg/kg/day, up to 7 days of treatment, after 3 weeks of L-DOPA) was “did not have any effect; also recorded: no improvement”, the “day of treatment from which the reduction in established dyskinesias was seen” value ([3]; fasudil 40 mg/kg/day) was “third” and the “reduction in established dyskinesias” value ([3]; fasudil 40 mg/kg/day, after 3 weeks of L-DOPA) was “about 45%”. For the same compound, the “dyskinesias reduced to (already dyskinetic animals)” value ([3]; fasudil 40 mg/kg, animals treated with L-DOPA for 3-4 weeks, summary statement) was ~50%.
